Here are results for 18 compounds from US12202835B2, “Substituted aromatic ring-linked dioxinoquinazolines and dioxinoquinolines as kinase inhibitors” (BEIJING SCITECH-MQ PHARMACEUTICALS LIMITED, priority 2018, dated 2025).

pIC50: −log10 of the molar value. Some results are limits rather than exact numbers.

In one test the test system is Ba/F3 LMNA-NTRK1 cells. Kind of test: Assay for inhibiting the proliferation of Ba/F3 LMNA-NTRK1 cells (CCK-8). The test is classed as cell-based. The conditions noted are these: Mus musculus, BaF3. The method, boiled down:
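Cells were seeded and cultured overnight, then treated with graded compound concentrations (final DMSO 0.25%) for 72 h. CCK-8 was added for 1–2 h at 37 °C and OD450 read. Survival was normalised to untreated and cell-free blank wells, and IC50 was fitted.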

In a further test the target is MER kinase (Homo sapiens (Human), UniProt Q12866). Kind of test: Assay of small molecular compounds for inhibiting the activity of MER kinase (LANCE TR-FRET). The test is classed as biochemical. The method, boiled down: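 MER kinase preincubated 5 min at RT with compound (11 points, 0.042-2500 nM final), then ULight-poly GT and ATP added (4× stocks 200 nM and 20 μM) for 60 min at RT, 1% DMSO. Phosphorylation detected by LANCE TR-FRET; IC50 from % inhibition versus controls.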
In general terms: TR-FRET usually uses a lanthanide donor and a delayed reading to cut background.

The next test deals with c-MET kinase (Homo sapiens (Human), UniProt P08581). The test is described as follows: Assay of small molecular compounds for inhibiting the activity of c-MET kinase (LANCE TR-FRET). The conditions noted are these: read-out: CMET IC50. The test is classed as biochemical. The method, boiled down: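 LANCE TR-FRET assay with c-MET at 1 nM final after a 5 min room-temperature preincubation with compound (11-point, 3-fold series, 2500–0.042 nM final, 4% DMSO). ULight-JAK-1 (Tyr1023) peptide (100 nM final) and ATP (10 μM final) reacted 60 min in the dark. Inhibition was taken relative to controls, then IC50 fitted.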
Chain of c-MET kinase (P08581 25-1390): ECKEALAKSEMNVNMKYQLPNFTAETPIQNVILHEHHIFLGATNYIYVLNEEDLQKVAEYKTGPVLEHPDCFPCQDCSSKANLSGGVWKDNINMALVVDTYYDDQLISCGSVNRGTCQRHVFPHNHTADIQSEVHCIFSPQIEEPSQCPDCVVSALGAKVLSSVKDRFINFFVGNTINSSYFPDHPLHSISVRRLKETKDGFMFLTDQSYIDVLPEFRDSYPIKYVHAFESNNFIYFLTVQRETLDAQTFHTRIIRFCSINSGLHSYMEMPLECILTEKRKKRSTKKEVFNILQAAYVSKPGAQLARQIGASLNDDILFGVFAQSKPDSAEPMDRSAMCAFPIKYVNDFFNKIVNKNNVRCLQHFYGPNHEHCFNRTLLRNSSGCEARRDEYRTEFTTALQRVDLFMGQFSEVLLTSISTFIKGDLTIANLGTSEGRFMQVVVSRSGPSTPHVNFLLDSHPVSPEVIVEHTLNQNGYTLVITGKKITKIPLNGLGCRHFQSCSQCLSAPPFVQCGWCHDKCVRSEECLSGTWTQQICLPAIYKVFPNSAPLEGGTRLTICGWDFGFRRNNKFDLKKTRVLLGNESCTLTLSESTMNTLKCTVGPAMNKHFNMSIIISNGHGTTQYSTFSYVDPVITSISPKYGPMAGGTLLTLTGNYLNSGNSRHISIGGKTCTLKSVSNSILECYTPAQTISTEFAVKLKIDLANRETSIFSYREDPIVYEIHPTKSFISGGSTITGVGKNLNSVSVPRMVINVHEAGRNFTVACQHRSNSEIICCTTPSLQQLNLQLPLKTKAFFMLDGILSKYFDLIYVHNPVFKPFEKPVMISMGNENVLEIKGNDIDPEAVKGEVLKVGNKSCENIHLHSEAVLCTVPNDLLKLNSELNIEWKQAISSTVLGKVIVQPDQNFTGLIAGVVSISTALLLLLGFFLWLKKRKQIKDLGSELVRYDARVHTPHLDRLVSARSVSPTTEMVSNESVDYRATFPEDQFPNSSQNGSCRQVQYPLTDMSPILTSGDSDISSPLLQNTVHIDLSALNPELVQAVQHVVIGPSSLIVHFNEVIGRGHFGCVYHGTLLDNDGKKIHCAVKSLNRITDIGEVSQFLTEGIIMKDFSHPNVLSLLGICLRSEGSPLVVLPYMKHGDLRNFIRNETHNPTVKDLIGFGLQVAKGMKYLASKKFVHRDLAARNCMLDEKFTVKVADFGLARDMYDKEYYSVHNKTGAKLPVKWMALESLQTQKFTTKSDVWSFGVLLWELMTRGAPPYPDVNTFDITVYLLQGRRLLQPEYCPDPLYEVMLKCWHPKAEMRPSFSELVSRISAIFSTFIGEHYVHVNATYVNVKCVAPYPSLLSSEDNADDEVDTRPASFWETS

Chain of MER kinase (Q12866 21-999): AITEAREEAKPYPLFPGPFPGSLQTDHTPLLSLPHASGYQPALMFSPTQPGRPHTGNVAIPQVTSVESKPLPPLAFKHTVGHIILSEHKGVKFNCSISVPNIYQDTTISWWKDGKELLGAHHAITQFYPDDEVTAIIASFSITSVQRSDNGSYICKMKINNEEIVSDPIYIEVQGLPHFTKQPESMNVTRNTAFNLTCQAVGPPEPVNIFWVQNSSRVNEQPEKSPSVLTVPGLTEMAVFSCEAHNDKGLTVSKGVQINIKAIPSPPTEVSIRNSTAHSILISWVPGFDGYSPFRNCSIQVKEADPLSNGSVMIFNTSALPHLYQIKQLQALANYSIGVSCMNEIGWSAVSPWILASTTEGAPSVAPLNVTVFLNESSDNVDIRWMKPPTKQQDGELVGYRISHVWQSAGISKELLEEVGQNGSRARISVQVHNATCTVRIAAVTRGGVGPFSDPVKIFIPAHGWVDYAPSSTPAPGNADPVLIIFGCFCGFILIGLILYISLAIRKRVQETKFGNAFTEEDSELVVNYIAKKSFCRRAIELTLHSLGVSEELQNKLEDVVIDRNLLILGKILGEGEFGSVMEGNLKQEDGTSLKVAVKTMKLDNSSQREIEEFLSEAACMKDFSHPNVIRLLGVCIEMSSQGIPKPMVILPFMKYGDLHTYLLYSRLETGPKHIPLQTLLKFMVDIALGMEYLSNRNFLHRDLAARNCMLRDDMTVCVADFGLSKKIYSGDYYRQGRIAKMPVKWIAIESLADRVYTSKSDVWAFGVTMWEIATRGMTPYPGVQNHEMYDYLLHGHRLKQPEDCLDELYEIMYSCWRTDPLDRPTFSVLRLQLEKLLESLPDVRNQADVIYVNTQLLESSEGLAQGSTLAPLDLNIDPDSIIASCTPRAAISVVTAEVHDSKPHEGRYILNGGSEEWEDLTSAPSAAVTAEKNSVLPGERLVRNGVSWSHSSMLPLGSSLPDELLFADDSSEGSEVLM

Broadly, the pIC50 is the negative decadic logarithm of the IC50, by convention in mol/L. For the compound `Cn1cc(C(=O)Nc2ccc(Oc3ccnc4cc(OCC(C)(C)O)c5c(c34)OCCO5)cc2Cl)c(=O)n(-c2ccc(F)cc2)c1=O` [Example 141, N-(2-chloro-4-((5-(2-hydroxy-2-methylpropoxy)-2,3-dihydro-[1,4]dioxino[2,3-f]quinolin-10-yl)oxy)phenyl)-3-(4-fluorophenyl)-1-methyl-2,4-dioxo-1,2,3,4-tetrahydropyrimidine-5-carboxamide], the values for the pIC50 in the test on Ba/F3 LMNA-NTRK1 cells, against MER kinase and at c-MET kinase were more than 7.30, 6.30 to 7.30 and not below 7.30, respectively.
In the case of `Cn1cc(C(=O)Nc2ccc(Oc3ccnc4ccc5c(c34)OCCO5)cc2F)c(=O)n(-c2ccc(F)cc2)c1=O` [Example 162, N-(4-((2,3-dihydro-[1,4]dioxino[2,3-f]quinolin-10-yl)oxy)-2-fluorophenyl)-3-(4-fluorophenyl)-1-methyl-2,4-dioxo-1,2,3,4-tetrahydropyrimidine-5-carboxamide], the results for the negative-log IC50 (pIC50) in the test on Ba/F3 LMNA-NTRK1 cells, against MER kinase and at c-MET kinase were more than 7.30, 6.30 to 7.30 and 5.30 to 6.30, respectively.
For `CC(C)n1cc(C(=O)Nc2ccc(Oc3ccnc4cc(OCCCN5CCCCC5)c5c(c34)OCCO5)c(F)c2)c(=O)n(-c2ccc(F)cc2)c1=O` [Example 40, N-(3-fluoro-4-((5-(3-(piperidin-1-yl)propoxy)-2,3-dihydro-[1,4]dioxino[2,3-f]quinolin-10-yl)oxy)phenyl)-3-(4-fluorophenyl)-1-isopropyl-2,4-dioxo-1,2,3,4-tetrahydropyrimidine-5-carboxamide], the results for the pIC50 in the test with Ba/F3 LMNA-NTRK1 cells, against MER kinase and at c-MET kinase were more than 7.30, not below 7.30 and not below 7.30, respectively.
For `CCOc1ccn(-c2ccc(F)cc2)c(=O)c1C(=O)Nc1ccc(Oc2ccnc3cc(OCC4(N)CC4)c4c(c23)OCCO4)c(F)c1` [Example 105, N-(4-((5-((1-aminocyclopropyl)methoxy)-2,3-dihydro-[1,4]dioxino[2,3-f]quinolin-10-yl)oxy)-3-fluorophenyl)-4-ethoxy-1-(4-fluorophenyl)-2-oxo-1,2-dihydropyridine-3-carboxamide], the pIC50 with Ba/F3 LMNA-NTRK1 cells was 6.70 to 7.30; at MER kinase it was not below 7.30; at c-MET kinase it was not below 7.30.
For `COc1cc2nccc(Oc3ccc(NC(=O)c4cn(C)c(=O)n(-c5ccc(F)cc5)c4=O)c(Cl)c3)c2c2c1OCCO2` [Example 125, N-(2-chloro-4-((5-methoxy-2,3-dihydro-[1,4]dioxino[2,3-f]quinolin-10-yl)oxy)phenyl)-3-(4-fluorophenyl)-1-methyl-2,4-dioxo-1,2,3,4-tetrahydropyrimidine-5-carboxamide], the pIC50 is more than 7.30 in the test on Ba/F3 LMNA-NTRK1 cells, 6.30 to 7.30 against MER kinase and 6.30 to 7.30 on c-MET kinase.
As for `COc1ccn(-c2ccc(F)cc2)c(=O)c1C(=O)Nc1ccc(Oc2ccnc3cc(OCCCN4CCCCC4)c4c(c23)OCCO4)c(F)c1` [Example 32, N-(3-fluoro-4-((5-(3-(piperidin-1-yl)propoxy)-2,3-dihydro-[1,4]dioxino[2,3-f]quinolin-10-yl)oxy)phenyl)-1-(4-fluorophenyl)-4-methoxy-2-oxo-1,2-dihydropyridine-3-carboxamide], the negative-log IC50 (pIC50) in the test with Ba/F3 LMNA-NTRK1 cells is more than 7.30; against MER kinase, not below 7.30; on c-MET kinase, not below 7.30.
In the case of `COc1ccn(-c2ccc(F)cc2)c(=O)c1C(=O)Nc1ccc(Oc2ccnc3cc(OCCCN4CCOCC4)c4c(c23)OCCO4)c(F)c1` [Example 21, N-(3-fluoro-4-((5-(3-morpholinopropoxy)-2,3-dihydro-[1,4]dioxino[2,3-f]quinolin-10-yl)oxy)phenyl)-1-(4-fluorophenyl)-4-methoxy-2-oxo-1,2-dihydropyridine-3-carboxamide], the figures for the pIC50 with Ba/F3 LMNA-NTRK1 cells, on MER kinase and at c-MET kinase were more than 7.30, not below 7.30 and not below 7.30, respectively.
Take `COc1ccn(-c2ccc(F)cc2)c(=O)c1C(=O)Nc1ccc(Oc2ccnc3cc(OCCCN4CCCCC4)c4c(c23)OCCO4)cc1Cl` [Example 136, N-(2-chloro-4-((5-((3-piperidin-1-yl)propoxy)-2,3-dihydro-[1,4]dioxino[2,3-f]quinolin-10-yl)oxy)phenyl)-1-(4-fluorophenyl)-4-methoxy-2-oxo-1,2-dihydropyridine-3-carboxamide]: the pIC50 in the test on Ba/F3 LMNA-NTRK1 cells was more than 7.30; against MER kinase it was not below 7.30; at c-MET kinase, not below 7.30.
On to `CCOc1ccn(-c2ccc(F)cc2)c(=O)c1C(=O)Nc1ccc(Oc2ccnc3cc(OCC(C)(C)O)c4c(c23)OCCO4)c(F)c1` [Example 120, N-(3-fluoro-4-((5-(2-hydroxy-2-methylpropoxy)-2,3-dihydro-[1,4]dioxino[2,3-f]quinolin-10-yl)oxy)phenyl)-4-ethoxy-1-(4-fluorophenyl)-2-oxo-1,2-dihydropyridine-3-carboxamide], for which the pIC50 with Ba/F3 LMNA-NTRK1 cells was more than 7.30; against MER kinase, not below 7.30; at c-MET kinase it was not below 7.30.
In the case of `O=C(Nc1ccc(Oc2ccnc3cc(OCCCN4CCCCC4)c4c(c23)OCCO4)cc1Cl)c1cccn(-c2ccc(F)cc2)c1=O` [Example 135, N-(2-chloro-4-((5-((3-piperidin-1-yl)propoxy)-2,3-dihydro-[1,4]dioxino[2,3-f]quinolin-10-yl)oxy)phenyl)-1-(4-fluorophenyl)-2-oxo-1,2-dihydropyridine-3-carboxamide], the pIC50 in the test on Ba/F3 LMNA-NTRK1 cells is more than 7.30; at MER kinase it was not below 7.30; at c-MET kinase, not below 7.30.
Consider `COCCN(C)CCCOc1cc2nccc(Oc3ccc(NC(=O)c4cn(C(C)C)c(=O)n(-c5ccc(F)cc5)c4=O)cc3F)c2c2c1OCCO2` [Example 95, N-(3-fluoro-4-((5-(3-((2-methoxyethyl)(methyl)amino)propoxy)-2,3-dihydro-[1,4]dioxino[2,3-f]quinolin-10-yl)oxy)phenyl)-3-(4-fluorophenyl)-1-isopropyl-2,4-dioxo-1,2,3,4-tetrahydropyrimidine-5-carboxamide], for which the pIC50 was 6.70 to 7.30 with Ba/F3 LMNA-NTRK1 cells, not below 7.30 at MER kinase and not below 7.30 at c-MET kinase.
In the case of `CCn1cc(C(=O)Nc2ccc(Oc3ccnc4cc(OCCCN5CCOCC5)c5c(c34)OCCO5)c(F)c2)c(=O)n(-c2ccc(F)cc2)c1=O` [Example 38, N-(3-fluoro-4-((5-(3-morpholinopropoxy)-2,3-dihydro-[1,4]dioxino[2,3-f]quinolin-10-yl)oxy)phenyl)-3-(4-fluorophenyl)-1-ethyl-2,4-dioxo-1,2,3,4-tetrahydropyrimidine-5-carboxamide], the negative logarithm of the IC50 (pIC50) with Ba/F3 LMNA-NTRK1 cells is more than 7.30; against MER kinase it was not below 7.30; on c-MET kinase it was not below 7.30.
Turning to `CCOc1ccn(-c2ccc(F)cc2)c(=O)c1C(=O)Nc1ccc(Oc2ccnc3cc(OCC(C)(C)O)c4c(c23)OCCO4)cc1Cl` [Example 142, N-(2-chloro-4-((5-(2-hydroxy-2-methylpropoxy)-2,3-dihydro-[1,4]dioxino[2,3-f]quinolin-10-yl)oxy)phenyl)-1-(4-fluorophenyl)-4-ethoxy-2-oxo-1,2-dihydropyridine-3-carboxamide], the pIC50 with Ba/F3 LMNA-NTRK1 cells was more than 7.30; against MER kinase, not below 7.30; at c-MET kinase, not below 7.30.
As for `CCOc1ccn(-c2ccc(C)cc2)c(=O)c1C(=O)Nc1ccc(Oc2ccnc3cc(OC)c4c(c23)OCCO4)c(F)c1` [Example 112, N-(3-fluoro-4-((5-methoxy-2,3-dihydro-[1,4]dioxino[2,3-f]quinolin-10-yl)oxy)phenyl)-2-oxo-4-ethoxy-1-(4-methylphenyl)-1,2-dihydropyridin-3-carboxamide], the pIC50 is more than 7.30 in the test on Ba/F3 LMNA-NTRK1 cells, not below 7.30 on MER kinase and not below 7.30 at c-MET kinase.
`O=C(Nc1ccc(Oc2ccnc3cc(OCCCN4CCOCC4)c4c(c23)OCCO4)cc1Cl)c1cccn(-c2ccc(F)cc2)c1=O` [Example 143, N-(2-chloro-4-((5-(3-morpholinopropoxy)-2,3-dihydro-[1,4]dioxino[2,3-f]quinolin-10-yl)oxy)phenyl)-1-(4-fluorophenyl)-2-oxo-1,2-dihydropyridine-3-carboxamide]: the results for the negative logarithm of the IC50 (pIC50) with Ba/F3 LMNA-NTRK1 cells, on MER kinase and at c-MET kinase were more than 7.30, not below 7.30 and not below 7.30, respectively.
On to `COc1cc2nccc(Oc3ccc(NC(=O)c4cn(CC(=O)O)c(=O)n(-c5ccc(F)cc5)c4=O)cc3F)c2c2c1OCCO2` [Example 104, 2-(5-((3-fluoro-4-((5-methoxy-2,3-dihydro-[1,4]dioxino[2,3-f]quinolin-10-yl)oxy)phenyl)carbamoyl)-3-(4-fluorophenyl)-2,4-dioxo-3,4-dihydropyrimidin-1(2H)-yl)acetic acid], for which the pIC50 was less than 6.00 in the test on Ba/F3 LMNA-NTRK1 cells, not below 7.30 at MER kinase and not below 7.30 on c-MET kinase.
Regarding `CCOc1cc2nccc(Oc3ccc(NC(=O)c4cn(C)c(=O)n(-c5ccc(F)cc5)c4=O)c(Cl)c3)c2c2c1OCCO2` [Example 129, N-(2-chloro-4-((5-ethoxy-2,3-dihydro-[1,4]dioxino[2,3-f]quinolin-10-yl)oxy)phenyl)-3-(4-fluorophenyl)-1-methyl-2,4-dioxo-1,2,3,4-tetrahydropyrimidine-5-carboxamide], the figures for the pIC50 in the test with Ba/F3 LMNA-NTRK1 cells, at MER kinase and on c-MET kinase were more than 7.30, not below 7.30 and not below 7.30, respectively.
`COCCOc1cc2nccc(Oc3ccc(NC(=O)c4cccn(-c5ccc(F)cc5)c4=O)cc3F)c2c2c1OCCO2` [Example 34, N-(3-fluoro-4-((5-(2-methoxyethoxy)-2,3-dihydro-[1,4]dioxino[2,3-f]quinolin-10-yl)oxy)phenyl)-1-(4-fluorophenyl)-2-oxo-1,2-dihydropyridine-3-carboxamide]: the pIC50 in the test on Ba/F3 LMNA-NTRK1 cells is more than 7.30; on MER kinase, not below 7.30; at c-MET kinase it was not below 7.30.
